Results published in article PMC4669759 (Cell Death & Disease, 2015).

Legend:
BCL-2–BAD complexes = biological target: T1, BCL-2–BAD complexes (Homo sapiens, UniProt P10415); experiment: Live cell redistribution assay, eGFP-BCL-2 and mCherry-BAD, T-REx-293 cells; assay type: cell-based; conditions: 10 μM, 300 min
T1 construct: expressed in transfected cells; host or cells: T-REx-293, bicistronic expression module integrated at a single genomic site
Text: To further rule out potential artifacts associated with lysate detergents that can influence interactions between BCL-2 family proteins,[47] we employed a recently described real-time imaging method to assess the effects on BCL-2 family complexes in live cells.[48] Briefly, interacting pairs of BCL-2 family proteins are expressed as fluorescent fusion proteins at stoichiometric levels from a bicistronic expression module integrated into a single site of the genome in T-REx-293 cells. […]
Figure 3 A-1210477 inhibits MCL-1-BIM complexes in live cells. […] The decrease in amount of mCherry-BH3 protein localized to the mitochondria was quantified as a function of time as described in the Materials and Methods, normalized to DMSO control, and fitted to a single exponential decay. Each data point represents the mean change in intensity calculated from 10 fields of view, with error bars indicating the S.E.M. (b) T-REx-293 cells stably expressing eGFP-MCL-1(3B) and mCherry-BIMS(2A)ΔC were treated with 50 μM ABT-737 or increasing concentrations (1–25 μM) A-1210477 for 100 min. The decrease in amount of mCherry-BIMS(2A)ΔC localized to the mitochondria was quantified as in panel (a). (c) Representative fluorescence microscopic images of T-REx-293 cells stably expressing eGFP-BCL-2 family and interacting mCherry-BH3-only proteins before and after 300 min of treatment with 10 μM A-1210477 or (d) ABT-737. […]

BCL-2–BIM interactions = biological target: T2, BCL-2–BIM interactions (Homo sapiens, UniProt P10415); experiment: Mammalian two-hybrid assay, BCL-2–BIM, HeLa cells; assay type: cell-based; conditions: 24 h, luciferase two-hybrid
T2 construct: expressed in transfected cells; host or cells: HeLa cells stably expressing a GAL4-luciferase reporter
T2 sequence (P10415 whole entry, the tested form may be a part): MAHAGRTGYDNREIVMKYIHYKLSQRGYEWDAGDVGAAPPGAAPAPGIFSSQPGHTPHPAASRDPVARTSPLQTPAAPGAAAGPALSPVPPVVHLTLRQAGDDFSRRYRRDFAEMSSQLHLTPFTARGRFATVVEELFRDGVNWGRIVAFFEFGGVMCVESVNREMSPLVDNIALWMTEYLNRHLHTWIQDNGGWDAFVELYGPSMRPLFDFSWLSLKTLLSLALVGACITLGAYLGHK
Experimental: (§1) (a) H929 cells were treated with increasing concentrations of A-1210477 for 4 h. […] All data represent the mean of triplicate experiments, with error bars indicating the S.D. (b) Quantitative measurement of protein–protein interactions using a luciferase-based mammalian two-hybrid assay. […] All data represent the means of triplicate experiments, with error bars indicating the S.Ds.
HeLa cells stably expressing a GAL4-luciferase reporter were seeded into 10 cm dishes at 5 × 10^5 cells per plate. In all, 24 μg of a plasmid expressing both the ‘bait' and ‘prey' fusion proteins (GAL4DBD-BIM and VP16AD-BCL-2, GAL4DBD-BCL-XL and VP16AD- BCL-XS, or GAL4DBD-MCL-1 and VP16AD-NOXA, respectively) were mixed with 1.5 ml OptiMEM (Invitrogen). Separately, 24 μl Lipofectamine 2000 (Invitrogen) were mixed with 1.5 ml OptiMEM. Both solutions were incubated for 5 min (RT) and then mixed together for 20 min. Three milliliters of the mixture was added to cells in 12 ml culture medium lacking antibiotics, incubated at 37 °C for 24 h, and then transferred to 96-well plates at 20 000 cells per well. Compounds were added in half-log dilutions, starting from 1 μM and ending at 0.0001 μM for 24 h, and luciferase activity was assessed using ONE-Glo reagent (Promega). All data were plotted as the percentage of complex remaining relative to untreated controls.

MCL-1 = MCL-1 (Homo sapiens, UniProt Q07820); set-up: endogenous in cells; host or cells: HCC-1806; method as in PMID 25679114; conditions: in the presence of 10% human serum; cited from earlier work
Sequence of MCL-1 (Q07820 whole entry): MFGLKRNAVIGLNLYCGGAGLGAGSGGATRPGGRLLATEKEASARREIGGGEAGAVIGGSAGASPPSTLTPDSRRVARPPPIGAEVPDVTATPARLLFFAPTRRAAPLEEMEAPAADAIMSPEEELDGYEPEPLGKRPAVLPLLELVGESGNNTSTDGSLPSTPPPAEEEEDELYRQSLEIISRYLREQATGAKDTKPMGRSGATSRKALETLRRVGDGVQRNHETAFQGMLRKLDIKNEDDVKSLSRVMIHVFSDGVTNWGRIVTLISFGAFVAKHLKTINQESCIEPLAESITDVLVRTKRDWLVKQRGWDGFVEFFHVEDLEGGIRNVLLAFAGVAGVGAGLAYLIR

MCL-1–BIM complexes = biological target: T3, MCL-1–BIM complexes (Homo sapiens, UniProt Q07820); experiment: Co-immunoprecipitation–electrochemiluminescent ELISA of MCL-1–BIM complexes in H929 cells; assay type: cell-based; conditions: 4 h
T3 construct: endogenous in cells; host or cells: H929
T3 sequence (Q07820 whole entry, one chain of several): as the sequence (Q07820 whole entry) above
Experimental: as §1
After compound treatments, cells were lysed in buffer containing 1% CHAPS, 10 mM HEPES, and 150 mM NaCl with protease inhibitor cocktail (Roche, Indianapolis, IN, USA). In all, 100 μg of cell lysate was added to each well of a Meso Scale Discovery (Rockville, MD, USA) 96-well plate precoated with biotinylated anti-MCL-1 antibody (clone RC13) from Thermo Fisher Scientific. MCL-1-BIM complexes were detected with rabbit anti-BIM antibody (clone Y36) from Abcam, followed by Sulfo-tagged anti-rabbit antibody (Meso Scale Discovery; cat no. R32AB-5) and Meso Scale Discovery reading buffer with surfactant (cat. no. R92TC-2) according to the manufacturer's recommendations. Each step was followed by washing three times with PBS-T (PBS+0.1% Tween-20).

T1 sequence (P10415 whole entry, one chain of several): as the sequence (P10415 whole entry, the tested form may be a part) above

Cc1nn(C)c(COc2ccc(N3CCN(S(=O)(=O)N(C)C)CC3)cc2)c1-c1cccc2c(CCCOc3cccc4ccccc34)c(C(=O)O)n(CCN3CCOCC3)c12 [A-1210477]
redistribution of mCherry-BAD associated with BCL-2 (BCL-2–BAD complexes): no effect
effect on BCL-2–BIM interactions (BCL-2–BIM interactions): no effect
shift in MCL-1 affinity (MCL-1): > 15 fold
IC50, reduction of BIM co-immunoprecipitated with MCL-1 (MCL-1–BIM complexes): low-μM range
